One data set concerns HIV-HXB2. Briefly: Antiviral assay: protection of HIV-infected MT4 cells from cell death (MTT). The settings on record: Human immunodeficiency virus 1, 120 h; MT4 cells infected with HIV-HXB2; 5 days; MTT viability; rounded to nearest whole number. In kind it is cell-based. Here is the method: Methods 20: 309-321]. The method is based on the ability of compounds to protect HIV-infected T lymphoblastoid cells (MT4 cells) from cell-death mediated by the infection. The endpoint of the assay was calculated as the concentration of compound at which the cell viability of the culture was preserved by 50% (‘50% inhibitory concentration’, IC50). The cell viability of a culture was determined by the uptake of soluble, yellow 3-[4,5-dimethylthiazol-2-yl]-2,5-diphenyltetrazolium bromide (MTT) and its reduction to a purple insoluble formazan salt. After solubilization, spectrophotometric methods were employed to measure the amount of formazan product.
MT4 cells were prepared to be in logarithmic-phase growth and a total of 2×10^6 cells infected with either the wild type or site directed mutant clones of HIV-HXB2 at a multiplicity of approximately 0.0001 infectious units of virus per cell in a total volume of between 200-500 μl. The cells were incubated with virus for one hour at 37° C. then washed in 0.01 M phosphate buffered saline, pH 7.2, and resuspensed in culture medium for incubation in culture with serial dilutions of test compound. The culture medium used was RPMI 1640 without phenol red, supplemented with penicillin, streptomycin, L-glutamine and 10% fetal calf serum (GM10).
Test compounds were prepared as 2 mM solutions in dimethyl sulphoxide (DMSO). Four replicate, serial 2-fold dilutions in GM10 were then prepared and 50 microliter amounts placed in 96-well plates over a final concentration range of […]. Fifty microliters GM10 and 3.75×10^4 infected cells were then added to each well. Control cultures containing no cells (blank), uninfected cells (100% viability; 4 replicates) and infected cells without compound (total virus-mediated cell death; 4 replicates) were also prepared. The cultures were then incubated at 37° C. in a humidified atmosphere of 5% CO2 in air for 5 days.
A fresh solution of 5 mg/mL MTT was prepared in 0.01 M phosphate buffered saline, pH 7.2 and 20 μL added to each culture. The cultures were further incubated as before for 2 hours. They were then mixed by pipetting up and down, and 170 microliters of Triton X-100 in acidified isopropanol (10% v/v Triton X-100 in 1:250 mixture of concentrated HCl in isopropanol) were added and the cultures were mixed again by pipetting up and down. When the formazan deposit was fully solubilized by further mixing, the absorbance (OD) of the cultures was measured at 540 nm and 690 nm wavelength (690 nm readings were used as blanks for artefacts between wells). The percent protection for each treated culture was then calculated from the equation:
OD drug-treated cultures)−(OD untreated virus control cultures) % Protection=100%
(OD uninfected cultures)−(OD untreated virus control cultures)
The IC50 was then obtained from graph plots of percentage protection versus log10 drug concentration.

For a further data set, the target named is HIV-1 protease (Human immunodeficiency virus type 1 group M subtype B, UniProt P04585). Briefly: HIV protease inhibition assay (quenched fluorogenic substrate, fluorescence energy transfer).

The structures appear in SMILES notation.

Description for HIV-1 protease: HIV protease inhibitory activity was assessed using an adaptation of the method of Matayoshi. et al. [Matayoshi E. D. et al (1990).
Crude HIV-1 protease was prepared from E. coli pPTΔN. Cultures were grown at 30° in M9 medium supplemented with 0.2% casamino acids, 100 μg/ml ampicillin and 25 μg/ml thiamine until OD600=0.5-0.6, and the temperature was raised to 42° to induce expression of the protease. After 1.5 hours, the cells were harvested and the pellets stored at −70° until required.
The protease was prepared by lysis of the cells in a French pressure cell followed by precipitation of the enzyme with ammonium sulfate at 30% saturation.
The assay buffer comprised 0.1M sodium acetate pH 4.7, 8 mM EDTA, 0.2 M NaCl.
Tubes were incubated for 2 hours at 37° and the reaction was terminated by the addition of 500 μl of a 2:1 mixture of DMSO:50 mM Tricine pH 8.5. Fluorescence was measured in a fluorescence spectrophotometer, excitation λ=340 nm, emission λ=492 nm.

For orientation: IC50 means the concentration at which inhibition is half-maximal. Low readings indicate higher potency, high ones lower potency. Usually melting point stands for the temperature of the solid-liquid transition. On to `COC(=O)N[C@H](C(=O)N[C@@H](Cc1ccccc1)[C@H](O)CN1C[C@H]2CCCC[C@H]2C[C@H]1C(=O)NC(C)(C)C)C(C)(C)S(C)(=O)=O` [Example 4, N-tert-Butyl-1,2,3,4,4a(S),5,6,7,8,8a(S)-decahydro-2-[2(R)-hydroxy-3(S)-[[3-(methanesulfonyl)-N-(methoxycarbonyl)-L-valyl]amino]-4-phenylbutyl]-3(S)-isoquinolinecarboxamide], for which the melting point was 190 to 194 °C. The same compound returned an IC50 in the data set on HIV-HXB2 of 14 nM. In addition, the IC50 at HIV-1 protease turned out to be 2.8 nM.
For the compound `CC(C)(C)NC(=O)[C@@H]1C[C@@H]2CCCC[C@@H]2CN1C[C@@H](O)[C@H](Cc1ccccc1)NC(=O)CC(C)(C)S(C)(=O)=O` [Example 95, N-tert-Butyl-1,2,3,4,4a(S),5,6,7,8,8a(S)-decahydro-1-[2(R)-hydroxy-3(S)-[3-(methanesulfonyl)butyramido]-4-phenylbutyl]-2(S)-piperazinecarboxamide], the melting point is 95 to 110 °C. Moreover, in the data set with HIV-HXB2, 250 nM corresponded to half-maximal inhibition (IC50). This compound also yielded an IC50 against HIV-1 protease of 61 nM.

Values taken from patent US6472404B1 (priority 2000, dated 2002).
